Data: ChEMBL document CHEMBL1130995, “Anti-AIDS agents. 32. Synthesis and anti-HIV activity of betulin derivatives” (Bioorg Med Chem Lett, 1998)

Assays:
H9 [1] = assay: Compound was evaluated for cytotoxicity in H9 lymphocytes; assay type: functional, cell-based; details: Homo sapiens
H9 [2] = assay: Compound was evaluated for anti-HIV activity in H9 lymphocytes; assay type: functional, cell-based; details: Homo sapiens

| SMILES | IC50 (H9 [1]) | EC50 (H9 [2]) |
| --- | --- | --- |
| C=C(C)[C@@H]1CC[C@]2(COC(=O)CC(C)(C)CC(=O)O)CC[C@]3(C)[C@H](CC[C@@H]4[C@@]5(C)CCC(=O)C(C)(C)[C@@H]5CC[C@]43C)[C@@H]12 | 29.2 µM | 10 µM |
| CC(C)[C@@H]1CC[C@]2(COC(=O)CC(C)(C)CC(=O)O)CC[C@]3(C)[C@H](CC[C@@H]4[C@@]5(C)CC[C@H](OC(=O)CC(C)(C)CC(=O)O)C(C)(C)[C@@H]5CC[C@]43C)[C@@H]12 | 10.6 µM | 0.0047 µM |
| C=C(C)[C@@H]1CC[C@]2(COC(=O)CC3(CC(=O)O)CCCC3)CC[C@]3(C)[C@H](CC[C@@H]4[C@@]5(C)CC[C@H](OC(=O)CC6(CC(=O)O)CCCC6)C(C)(C)[C@@H]5CC[C@]43C)[C@@H]12 | 20.5 µM | 0.077 µM |
| CCC(C)(CC(=O)O)CC(=O)OC[C@]12CC[C@@H](C(C)C)[C@@H]1[C@H]1CC[C@@H]3[C@@]4(C)CC[C@H](OC(=O)CC(C)(CC)CC(=O)O)C(C)(C)[C@@H]4CC[C@@]3(C)[C@]1(C)CC2 (some centres undefined) | 18.7 µM | 0.075 µM |
| C=C(C)[C@@H]1CC[C@]2(COC(=O)CC(C)(C)CC(=O)O)CC[C@]3(C)[C@H](CC[C@@H]4[C@@]5(C)CC=CC(C)(C)[C@@H]5CC[C@]43C)[C@@H]12 | 28.3 µM | 5.4 µM |
| C=C(C)[C@@H]1CC[C@]2(COC(=O)CC(C)(C)CC(=O)O)CC[C@]3(C)[C@H](CC[C@@H]4[C@@]5(C)CC[C@H](O)C(C)(C)[C@@H]5CC[C@]43C)[C@@H]12 | 28.2 µM | 3.6 µM |
| C=C(C)[C@@H]1CC[C@]2(C(=O)O)CC[C@]3(C)[C@H](CC[C@@H]4[C@@]5(C)CC[C@H](OC(=O)CC(C)(C)CC(=O)O)C(C)(C)[C@@H]5CC[C@]43C)[C@@H]12 |  | 0.0023 µM |
| C=C(C)[C@@H]1CC[C@]2(COC(=O)CC(C)(CC)CC(=O)O)CC[C@]3(C)[C@H](CC[C@@H]4[C@@]5(C)CC[C@H](OC(=O)CC(C)(CC)CC(=O)O)C(C)(C)[C@@H]5CC[C@]43C)[C@@H]12 (some centres undefined) | 18.4 µM | 0.0053 µM |
| C=C(C)[C@@H]1CC[C@]2(CO)CC[C@]3(C)[C@H](CC[C@@H]4[C@@]5(C)CC=CC(C)(C)[C@@H]5CC[C@]43C)[C@@H]12 | 31.9 µM | 11.9 µM |
| C=C(C)[C@@H]1CC[C@]2(COC(=O)CC(C)(C)CC(=O)O)CC[C@]3(C)[C@H](CC[C@@H]4[C@@]5(C)CC[C@H](OC(=O)CC(C)(C)CC(=O)O)C(C)(C)[C@@H]5CC[C@]43C)[C@@H]12 | 14.2 µM | 0.00066 µM |
| CC(C)[C@@H]1CC[C@]2(COC(=O)CC3(CC(=O)O)CCCC3)CC[C@]3(C)[C@H](CC[C@@H]4[C@@]5(C)CC[C@H](OC(=O)CC6(CC(=O)O)CCCC6)C(C)(C)[C@@H]5CC[C@]43C)[C@@H]12 | 21.6 µM | 0.58 µM |
| C=C(C)[C@@H]1CC[C@]2(CO)CC[C@]3(C)[C@H](CC[C@@H]4[C@@]5(C)CC[C@H](O)C(C)(C)[C@@H]5CC[C@]43C)[C@@H]12 [BETULIN] | 43.7 µM | 23 µM |
| Cc1cn([C@H]2C[C@H](N=[N+]=[N-])[C@@H](CO)O2)c(=O)[nH]c1=O [ZIDOVUDINE] |  | 0.015 µM |
